# Test results as given in patent US20160281089A1, “PREVENTION OF VIRAL INFECTIVITY” (priority 2005, published 2016).
# Experiments:
# [1] = system: HIV virions; experiment: Infectivity of ODN-pre-incubated HIV virions in C81-66/45 cells; type: cell-based
# Experimental: As a next step we investigated the antiviral effect of ODNs by testing the infectivity of treated virions in cell culture studies. We used ODN A, ODN T, as PPT and ODN CO. 2×10^5 C81-66/45 cells were infected with virions pre-incubated with different ODNs at 0.01 MOI for 1, 2 or 4 hours prior to infection. RNA was extracted from infected cells and HIV replication was analysed by real-time PCR 3 days post-infection.
# To test the specificity of suppression of viral replication, the effect of ODN A on the infectivity of virions was compared with control ODNs. Virions were pre-treated with the ODNs and HIV replication in infected cells was analysed by real-time PCR, 5 days (FIG. 6A) or 20 days post-infection (FIG. 6B) and by measuring p24 production in the supernatant of the infected cells (FIG. 6C).
# (A) HIV virions were incubated with 0.5 μM of ODNs for 1, 2 or 4 hours. C81-66/45 cells were infected with pre-incubated virions, at 0.01 MOI. RNA was extracted from infected cells and HIV replication was analysed by real-time PCR, 3 days post-infection (p.i.).
# (B) The same experiment as in (A) was performed with ODN T, ODN CO, asPPT and ODN A pre-treated virions.
# (D) C81-66145 cells were infected with virions pre-incubated with 0.5 or 5 μM of ODNs for 4 h, at an MOI of 1. RNA was extracted from infected cells and HIV replication was analysed by real-time PCR, 3 days post-infection.
# (E) C81-66/45 cells were infected with virions pre-incubated with ODN A and ODN Sc for 4 h, at an MOI of 0.01. RNA was extracted from infected cells and HIV replication was analysed by real-time PCR, 1 h and 24 h post-infection. (F) The same experiment as in (E) was performed except for using ODN T, ODN B and ODN A, 1 hour post-infection.
# C81-66/45 cells were infected with virions pre-incubated with ODN A, ODN T, ODN CO or as PPT for 4 h, at MOI of 0.01. RNA was extracted from infected cells and HIV replication was analysed by real-time PCR, 5 days p.i. (A), and 20 days p.i. (B); by measuring p24 production in the medium of the infected cells (C) or by RT-PCR, 11 days p.i. (D).
# [2] = system: SFFV; experiment: Early i.v. therapy 2, 6 and 10 hours after SFFV infection of mice; type: in vivo; conditions: i.v. treatment 2, 6 and 10 hours after infection; for establishment of SFFV infection (PCR of blood samples): whole period tested
# Experimental: In another experimental setting we assessed the effect of an i.v. therapy early after infection. We infected mice with SFFV and treated them 2, 6, and 10 hours later with ODN M, asPPT or PBS.
# c. Mice infected with SFFV (4×10^2 FFU) i.v. received triple-treatments with ODNs at 2, 6 and 10 hours post-infection. Real-time RT-PCR analysis (graph) and RT-PCR (gel analysis) was performed with RNA from plasma beginning at day 5 and at the days indicated.
# [3] = system: HIV virions; experiment: ODN-mediated cleavage of viral RNA in intact HIV virions (real-time PCR, RT-PCR, agarose gel); type: biochemical; conditions: 0.5 μM ODN, 6 hours; for amount of undigested viral RNA (real-time PCR, primers covering PPT region): intact HIV virions, RPMI medium
# [4] = system: SFFV; experiment: NIH 3T3 cells infected with SFFV for 2 h and then treated; type: cell-based; conditions: treatment 2 h after infection, three concentrations, no carrier, three days post-infection
# Experimental: In the next experiment NIH 3T3 cells were infected with SFFV for 2 h and then treated with three different concentrations each of ODN M, asPPT, and three different siRNAs.
# c. NIH-3T3 cells were infected with SFFV for 2 hours and then treated with three decreasing concentrations of ODN M, asPPT and three different PPT-specific siRNAs. RNA was isolated from supernatants three days post-infection and analyzed by real time RT-PCR.
# [5] = system: SFFV virions; experiment: Permeabilized cell-free SFFV virions incubated with ODNs, undigested RNA by real-time PCR; type: biochemical; conditions: 5 μM ODN, compared to control ODNs or asPPT
# Experimental: In order to further characterize antiviral effects of ODNs, we tested ODN M, asPPT and structural analogs of ODN M in SFFV virions, which contain endogenous RT/RNase H and have an appropriate secondary structure of the RNA. Permeabilized virions were incubated with ODNs, viral RNA was then purified, reverse transcribed and the amount of undigested RNA was quantified by real-time PCR using a set of primers harboring the PPT region of the SFFV genome. […] We observed differences in the antiviral activities between various ODNs. […] Thus, the presence as well as the sequences of both strands of the ODN contributed to the antiviral effect. We noticed previously that the second arm of the ODN is more important intracellularly than in vitro.
# a. Cell-free SFFV virions (1×10^3 FFU in 20 μl) were permeabilized and incubated with the indicated ODNs (5 μM). RNA was extracted three days post-treatment and analyzed by quantitative real-time RT-PCR shown as bars (top) and RT-PCR shown as amplifications products on a 1.5% agarose gel (bottom).
# [6] = system: SFFV; experiment: Survival of SFFV-infected DBA/2 mice treated with ODN M at times 0 and 1 hour; type: in vivo; conditions: ODN M 1 mg at 0 and 1 hour, i.p.
# Experimental: We also monitored survival of SFFV-infected mice treated with and without ODN M at times 0 and 1 hour, in this case DBA/2 mice and by i.p. route (FIG. 11b).
# Five mice each received 300 μl SFFV (1:100) i.p. supplemented with or without ODN M and 1 h later a second dose of ODN M (1 mg each). Survival was monitored until day 68. The spleen weights at death are indicated as numbers on the graph.
# [7] = virions pre-incubated 4 hours with 0.5 μM ODN, 0.01 MOI, 3 days post-infection
Sequence,"HIV replication in infected cells (real-time PCR) [1, 7]",health of infected mice (spleen enlargement in mock-treated) [2],establishment of SFFV infection (PCR of blood samples) [2],"amount of undigested viral RNA (real-time PCR, primers covering PPT region) [3]","antiviral effect, SFFV RNA in supernatants [4]",amount of intact SFFV RNA in virions (antiviral activity) [5],survival time [6],number of treated mice with prolonged survival ([6]; DBA/2 mice),survival of the surviving mice ([6]; untreated mice died after 20 to 30 days),"HIV replication in infected cells (real-time PCR) ([1]; ODN-pre-treated virions, MOI of 1, 3 days post-infection)","binding/uptake of pre-treated virions by host cells ([1]; pre-incubation 4 hours, HIV RNA in infected cells 1 hour post-infection)","time without sign of virus replication after infection ([1]; virions pre-incubated 4 h, MOI of 0.01, real-time PCR, p24, RT-PCR, syncytia)","viral RNA in infected cells ([1]; virions pre-treated 4 h, 24 hours after infection)","virion uptake by cells, less efficient compared to ODN Sc-treated virions ([1]; virions pre-treated 4 hours, HIV RNA in infected cells 1 hour post-infection) [%]",cDNA production in virions (PCR with ODN A- and viral cDNA-specific primers) ([3]; virions containing monodeoxynucleotides),"total viral RNA by agarose gel electrophoresis ([3]; intact virions, compared to control ODNs)"
"CCCTTCCAGTCCCCCCTTTTCTTTT (chemistry not given here) [asPPT, single-stranded antisense PPT of HIV, lacks the passenger strand and the linker]",low but detectable levels,healthy,prevented the establishment of the SFFV-infection,less efficient cleavage of the viral RNA,,,,,,,,,,,,
"TCTTTTTGGGGGGTTTGTTTGTTTTTTCTTTCATTCCCCCCTTTTTCT (chemistry not given here) [ODN M, 22-mer antisense and 22-mer second strand connected by T4, targeted to extended PPT of SFFV]",,healthy,prevented the establishment of the SFFV-infection,,slightly superior to the asPPT but much stronger compared to siRNA,strongest effect,almost doubled,Two out of five,more than 60 days,,,,,,,
"TTTTCTTTTGGGGGGTTTGGTTGGGTTTTCCCTTCCAGTCCCCCCTTTTCTTTT (phosphorothioate linkages, further chemistry not given here) [ODN A, 25 mer antisense and 25 mer passenger strand connected by T4, phosphorothioated at each end and in linker, targeted to extended PPT of HIV-1]",complete suppression of viral replication,,,significant decrease in the amount of amplification product,,,,,,only partial suppression of HIV replication,did not significantly interfere with binding,at least 20 days,completely degraded,14,led to cDNA production starting with ODN A,significant reduction of the viral RNA
